Measured values: patent publication US10004738B2, “Combination treatment comprising administration of 2-amino-3,5,5-trifluoro-3,4,5,6-tetrahydropyridines” (H. Lundbeck A/S, priority 2015, dated 2018)
Read-outs that look alike come from different tables or passages of the source.

Experiments:
BACE1 enzyme = BACE1 enzyme (Homo sapiens (Human), UniProt P56817); test: BACE1 efficacy assay (FRET-based, commercial BACE1 kit); format: biochemical; conditions: test compound 10 μM, 3 nM enzyme, 250 nM substrate
Description: The efficacy assay was performed as a FRET-based assay using a commercially available BACE1 kit (Life Technologies, P2985). 2 μl test compound at 10 μM (final concentration) and 15 μl BACE1 enzyme from the kit (final concentration 3 nM) were preincubated for 15 minutes at room temperature before addition of 15 μl of substrate from the kit (250 nM final concentration) and incubated for additional 90 minutes at room temperature. The assay plate was subsequently read in a Pherastar (Ex540/Em590). […] The efficacy of the test compounds was evaluated at 10 μM (final concentration) and defined as the percent inhibition of the enzyme activity using the equation % inhibition=100%−normalized enzyme activity in percent.

[1] = Brain and plasma exposure in rats after oral dosing (DMPK analysis); format: in vivo; conditions: male, Sprague Dawley, rat, 3 hours post dose
Description: Young adult Male Sprague Dawley rats of approximately 250 g weight were purchased from Charles River and received 0-30 mg/kg of vehicle (10% HP betaCD+1M MeSO4, pH 2.5) or test compounds (dissolved in vehicle) only by oral gavage (p.o). The compounds are dosed at a volume of 5 ml/kg. Cohorts of 5-10 animals were established for each treatment condition.
At T=180 minutes after initial dosing the animals were stunned and decapitated with a guillotine. Trunk-blood was sampled in EDTA coated tubes after decapitation of the animal. The blood was centrifuged at 2200G at 4° C. for 15 minutes and the plasma was collected and frozen at −80° C. The blood was aliquoted for Aβ ELISA and DMPK analysis. Immediately following sacrifice, the brain was extracted and split into 2 halves. The right hemibrains were snap frozen on dry ice and stored at −80° C. The left half was dissected; with the front forebrain taken for Aβ ELISA and the remainder used for DMPK analysis. These samples were also snap frozen on dry ice and stored at −80° C. until use for analysis.
Compounds 1, 5, 17, 18, and 24 were administered at doses of 10 or 30 mg/kg p.o. and brain and plasma samples were collected at 3 hours post dose and the following exposures and reductions in Aβ40 levels were measured as described above.

[2] = 10 mg/kg p.o., brain, read-out: Exp, brain
[3] = 10 mg/kg p.o., plasma, read-out: Exp, plasma
[4] = 30 mg/kg p.o., brain, read-out: Exp, brain
[5] = 30 mg/kg p.o., plasma, read-out: Exp, plasma

Sequence of BACE1 enzyme (P56817 46-501): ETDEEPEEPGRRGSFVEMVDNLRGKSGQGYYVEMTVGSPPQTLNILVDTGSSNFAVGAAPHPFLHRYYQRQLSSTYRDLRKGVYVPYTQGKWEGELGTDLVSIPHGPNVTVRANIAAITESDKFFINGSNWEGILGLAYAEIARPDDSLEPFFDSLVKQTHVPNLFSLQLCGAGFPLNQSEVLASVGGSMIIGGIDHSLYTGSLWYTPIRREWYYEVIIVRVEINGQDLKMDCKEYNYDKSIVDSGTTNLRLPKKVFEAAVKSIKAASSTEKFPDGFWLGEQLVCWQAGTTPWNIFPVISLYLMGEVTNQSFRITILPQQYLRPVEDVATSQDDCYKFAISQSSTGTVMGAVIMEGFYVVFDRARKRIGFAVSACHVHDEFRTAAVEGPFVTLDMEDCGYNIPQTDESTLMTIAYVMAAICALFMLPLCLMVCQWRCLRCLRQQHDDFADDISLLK

inhibition at 10 µM (BACE1 enzyme)	concentration at 3 h [1, 2]	concentration at 3 h [1, 3]	concentration at 3 h [1, 4]	concentration at 3 h [1, 5]	Compound
98%	134 ng/g	96.2 ng/g	809 ng/g	673 ng/g	C[C@@]1(F)CC(F)(F)[C@@](C)(c2cc(NC(=O)c3cnc(C(F)F)cn3)ccc2F)N=C1N [Compound 24, N-(3-((2R,5R)-6-amino-3,3,5-trifluoro-2,5-dimethyl-2,3,4,5-tetrahydropyridin-2-yl)-4-fluorophenyl)-5-(difluoromethyl)pyrazine-2-carboxamide]
93%					Cc1ccc(C(=O)Nc2ccc(F)c([C@@]3(C)N=C(N)[C@](C)(F)CC3(F)F)c2)o1 [Compound 41, N-(3-((2R,5R)-6-amino-3,3,5-trifluoro-2,5-dimethyl-2,3,4,5-tetrahydropyridin-2-yl)-4-fluorophenyl)-5-methylfuran-2-carboxamide]
98%					Cc1cc(F)cnc1C(=O)Nc1ccc(F)c([C@@]2(C)N=C(N)[C@@](C)(F)CC2(F)F)c1 [Compound 49, N-(3-((2R,5S)-6-amino-3,3,5-trifluoro-2,5-dimethyl-2,3,4,5-tetrahydropyridin-2-yl)-4-fluorophenyl)-5-fluoro-3-methylpicolinamide]
69%					Cc1cc(C(=O)Nc2ccc(F)c([C@@]3(C)N=C(N)[C@](C)(F)CC3(F)F)c2)on1 [Compound 40, N-(3-((2R,5R)-6-amino-3,3,5-trifluoro-2,5-dimethyl-2,3,4,5-tetrahydropyridin-2-yl)-4-fluorophenyl)-3-methylisoxazole-5-carboxamide]
102%					Cc1nc(C(=O)Nc2ccc(F)c([C@@]3(C)N=C(N)[C@](C)(F)CC3(F)F)c2)co1 [Compound 34, N-(3-((2R,5R)-6-amino-3,3,5-trifluoro-2,5-dimethyl-2,3,4,5-tetrahydropyridin-2-yl)-4-fluorophenyl)-2-methyloxazole-4-carboxamide]
101%					C[C@@]1(F)CC(F)(F)[C@@](C)(c2cc(NC(=O)c3coc(C(F)F)n3)ccc2F)N=C1N [Compound 29, N-(3-((2R,5R)-6-amino-3,3,5-trifluoro-2,5-dimethyl-2,3,4,5-tetrahydropyridin-2-yl)-4-fluorophenyl)-2-(difluoromethyl)oxazole-4-carboxamide]
103%					C[C@@]1(F)CC(F)(F)[C@@](C)(c2cc(NC(=O)c3ccc(Cl)cn3)ccc2F)N=C1N [Compound 33, N-(3-((2R,5R)-6-amino-3,3,5-trifluoro-2,5-dimethyl-2,3,4,5-tetrahydropyridin-2-yl)-4-fluorophenyl)-5-chloropicolinamide]
102%					COc1cnc(C(=O)Nc2ccc(F)c([C@@]3(C)N=C(N)[C@](C)(F)CC3(F)F)c2)cn1 [Compound 25, N-(3-((2R,5R)-6-amino-3,3,5-trifluoro-2,5-dimethyl-2,3,4,5-tetrahydropyridin-2-yl)-4-fluorophenyl)-5-methoxypyrazine-2-carboxamide]
104%					Cn1cc(Br)nc1C(=O)Nc1ccc(F)c([C@@]2(C)N=C(N)[C@](C)(F)CC2(F)F)c1 [Compound 37, N-(3-((2R,5R)-6-amino-3,3,5-trifluoro-2,5-dimethyl-2,3,4,5-tetrahydropyridin-2-yl)-4-fluorophenyl)-4-bromo-1-methyl-1H-imidazole-2-carboxamide]
102%					C[C@@]1(F)CC(F)(F)[C@@](C)(c2cc(NC(=O)c3ccc(C(F)(F)F)cn3)ccc2F)N=C1N [Compound 28, N-(3-((2R,5R)-6-amino-3,3,5-trifluoro-2,5-dimethyl-2,3,4,5-tetrahydropyridin-2-yl)-4-fluorophenyl)-5-(trifluoromethyl)picolinamide]
99%					[2H]C([2H])([2H])Oc1ccc(C(=O)Nc2ccc(F)c([C@@]3(C)N=C(N)[C@@](C)(F)CC3(F)F)c2)nc1 [Compound 48]

The remaining lines, values behind:

Compound	inhibition at 10 µM (BACE1 enzyme)	concentration at 3 h [1, 2]	concentration at 3 h [1, 3]	concentration at 3 h [1, 4]	concentration at 3 h [1, 5]
Cc1cc(C#N)cnc1C(=O)Nc1ccc(F)c([C@@]2(C)N=C(N)[C@@](C)(F)CC2(F)F)c1 [Compound 18, N-(3-((2R,5S)-6-amino-3,3,5-trifluoro-2,5-dimethyl-2,3,4,5-tetrahydropyridin-2-yl)-4-fluorophenyl)-5-cyano-3-methylpicolinamide]	102%	412 ng/g	778 ng/g	1610 ng/g	3000 ng/g
COc1ccc(C(=O)Nc2ccc(F)c([C@@]3(C)N=C(N)[C@@](C)(F)CC3(F)F)c2)nc1 [Compound 17, N-(3-((2R,5S)-6-amino-3,3,5-trifluoro-2,5-dimethyl-2,3,4,5-tetrahydropyridin-2-yl)-4-fluorophenyl)-5-methoxypicolinamide]	101%			1220 ng/g	828 ng/g
C[C@]1(F)CC(F)(F)[C@@](C)(c2cc(NC(=O)c3ccc(Cl)cn3)ccc2F)N=C1N [Compound 3, N-(3-((2R,5S)-6-amino-3,3,5-trifluoro-2,5-dimethyl-2,3,4,5-tetrahydropyridin-2-yl)-4-fluorophenyl)-5-chloropicolinamide]	102%				
C[C@]1(F)CC(F)(F)[C@@](C)(c2cc(NC(=O)c3ccc(F)cn3)ccc2F)N=C1N [Compound 1, N-(3-((2R,5S)-6-amino-3,3,5-trifluoro-2,5-dimethyl-2,3,4,5-tetrahydropyridin-2-yl)-4-fluorophenyl)-5-fluoropicolinamide]	104%			2190 ng/g	3540 ng/g
C[C@]1(F)CC(F)(F)[C@@](C)(c2cc(NC(=O)c3coc(C(F)F)n3)ccc2F)N=C1N [Compound 13, N-(3-((2R,5S)-6-amino-3,3,5-trifluoro-2,5-dimethyl-2,3,4,5-tetrahydropyridin-2-yl)-4-fluorophenyl)-2-(difluoromethyl)oxazole-4-carboxamide]	99%				
Cc1noc(C(=O)Nc2ccc(F)c([C@@]3(C)N=C(N)[C@@](C)(F)CC3(F)F)c2)n1 [Compound 21, N-(3-((2R,5S)-6-amino-3,3,5-trifluoro-2,5-dimethyl-2,3,4,5-tetrahydropyridin-2-yl)-4-fluorophenyl)-3-methyl-1,2,4-oxadiazole-5-carboxamide]	102%				
Cc1nnc(C(=O)Nc2ccc(F)c([C@@]3(C)N=C(N)[C@@](C)(F)CC3(F)F)c2)o1 [Compound 20, N-(3-((2R,5S)-6-amino-3,3,5-trifluoro-2,5-dimethyl-2,3,4,5-tetrahydropyridin-2-yl)-4-fluorophenyl)-5-methyl-1,3,4-oxadiazole-2-carboxamide]	88%				
Cc1csc(C(=O)Nc2ccc(F)c([C@@]3(C)N=C(N)[C@@](C)(F)CC3(F)F)c2)n1 [Compound 10, N-(3-((2R,5S)-6-amino-3,3,5-trifluoro-2,5-dimethyl-2,3,4,5-tetrahydropyridin-2-yl)-4-fluorophenyl)-4-methylthiazole-2-carboxamide]	102%				
C[C@]1(F)CC(F)(F)[C@@](C)(c2cc(NC(=O)c3cnc(C(F)F)cn3)ccc2F)N=C1N [Compound 16, N-(3-((2R,5S)-6-amino-3,3,5-trifluoro-2,5-dimethyl-2,3,4,5-tetrahydropyridin-2-yl)-4-fluorophenyl)-5-(difluoromethyl)pyrazine-2-carboxamide]	105%				
COc1cnc(C(=O)Nc2ccc(F)c([C@@]3(C)N=C(N)[C@@](C)(F)CC3(F)F)c2)cn1 [Compound 5, N-(3-((2R,5S)-6-amino-3,3,5-trifluoro-2,5-dimethyl-2,3,4,5-tetrahydropyridin-2-yl)-4-fluorophenyl)-5-methoxypyrazine-2-carboxamide]	96%	174 ng/g	137 ng/g	954 ng/g	632 ng/g
